In brackets after ≈: the same amount, converted by molar mass.

Here are results for six compounds from patent US20240150298A1, “ANTIBACTERIAL COMPOUNDS” (Blacksmith Medicines, Inc., priority 2021, published 2024).

The subject of one test is P. aeruginosa ATCC27835. As to the kind of experiment: Bacterial susceptibility testing, MIC by broth microdilution (CLSI). As to conditions: Pseudomonas aeruginosa, ATCC27835, broth microdilution, 35° C., 18-24 h; read-out: MIC P. aeruginosa ATCC27835. It counts as cell-based. An outline of the steps:
(§1)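 Broth microdilution per CLSI in cation-adjusted Mueller-Hinton broth, inoculum 3×10^5–7×10^5 CFU/mL, 2-fold serial drug dilutions in DMSO. Incubated in ambient air at 35° C for 18-24 h. MIC taken as lowest concentration preventing visible growth (OD600 nm<0.05).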

The test system of another test is K. pneumoniae ATCC13883. Described as above. It counts as cell-based. As to conditions: Klebsiella pneumoniae, ATCC13883, broth microdilution, 35° C., 18-24 h; read-out: MIC K. pneumoniae ATCC13883. Summed up: as §1
(Broth dilution looks for growth in wells or tubes with falling amounts of substance.)

A further test relates to E. coli ATCC25922. Described as above. In kind it is cell-based. As to conditions: Escherichia coli, ATCC25922, broth microdilution, 35° C., 18-24 h; read-out: MIC E. coli ATCC25922. Summed up:
as §1

Another test concerns P. aeruginosa 209 PAO1. Described as above. In kind it is cell-based. The following applies: Pseudomonas aeruginosa, PAO1, broth microdilution, 35° C., 18-24 h; read-out: MIC P. aeruginosa 209 PAO1. An outline of the steps: as §1
For another test, the target named is T1, P. aeruginosa LpxC (Pseudomonas aeruginosa, UniProt P47205).
T1 sequence (P47205 1-303): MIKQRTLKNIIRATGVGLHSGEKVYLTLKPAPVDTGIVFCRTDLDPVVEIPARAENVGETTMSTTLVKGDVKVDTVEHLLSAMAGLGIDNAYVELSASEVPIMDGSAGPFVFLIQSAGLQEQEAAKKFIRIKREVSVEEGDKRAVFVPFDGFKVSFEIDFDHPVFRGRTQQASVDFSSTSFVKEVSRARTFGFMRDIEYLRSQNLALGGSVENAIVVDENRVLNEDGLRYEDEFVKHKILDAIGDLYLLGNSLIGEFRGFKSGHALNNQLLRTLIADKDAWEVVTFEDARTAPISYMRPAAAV
As to the kind of experiment: LpxC Binding Assay (Rapid Fire MS assay). In kind it is biochemical. As for the experimental part: (§2) IC50 values against E. coli and P. aeruginosa LpxC are determined using a Rapid Fire MS assay as previously described J. Med. Chem. 2012, 55, 1662-1670.

The target of the next test is E. coli LpxC (Escherichia coli, UniProt P0A725). As to the kind of experiment: LpxC Binding Assay (Rapid Fire MS assay). In kind it is biochemical. As for the experimental part: as §2
Chain of E. coli LpxC (P0A725 whole entry): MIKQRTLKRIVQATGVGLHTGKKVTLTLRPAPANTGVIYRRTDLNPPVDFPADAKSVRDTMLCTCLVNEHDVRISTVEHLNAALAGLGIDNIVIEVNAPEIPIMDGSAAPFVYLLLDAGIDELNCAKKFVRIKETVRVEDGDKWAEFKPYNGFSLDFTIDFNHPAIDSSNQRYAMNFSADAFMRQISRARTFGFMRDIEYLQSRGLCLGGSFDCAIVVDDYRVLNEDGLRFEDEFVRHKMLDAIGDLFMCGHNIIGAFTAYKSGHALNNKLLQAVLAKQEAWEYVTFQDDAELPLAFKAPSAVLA
In the next test the target is K. pneumoniae LpxC (Klebsiella pneumoniae subsp. pneumoniae, UniProt A6T4N9). The test is described as follows: LpxC Binding Assay (Rapid Fire MS assay). In kind it is biochemical.
Chain of K. pneumoniae LpxC (A6T4N9 whole entry): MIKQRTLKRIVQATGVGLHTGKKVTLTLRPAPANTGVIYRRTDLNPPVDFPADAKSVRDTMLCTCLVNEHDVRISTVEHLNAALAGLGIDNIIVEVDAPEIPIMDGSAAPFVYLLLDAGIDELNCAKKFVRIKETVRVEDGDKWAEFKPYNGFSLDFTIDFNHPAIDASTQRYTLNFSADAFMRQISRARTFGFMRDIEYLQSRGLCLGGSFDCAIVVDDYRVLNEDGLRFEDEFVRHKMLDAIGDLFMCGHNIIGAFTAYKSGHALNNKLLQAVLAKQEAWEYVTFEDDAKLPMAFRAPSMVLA

Consider `C[C@H](O)c1nccn1[C@@H](/C=C/c1ccc(-c2ccc(OCCN(CCO)CCO)cc2)cc1)CO` [Compound 28, 2,2′-((2-((4′—((S,E)-4-hydroxy-3-(2-((S)-1-hydroxyethyl)-1H-imidazol-1-yl)but-1-en-1-yl)-[1,1′-biphenyl]-4-yl)oxy)ethyl)azanediyl)bis(ethan-1-ol)], for which the MIC – broadly, the lowest concentration that inhibits growth of the organism – stood at 4 µg/mL (≈ 8.31 µM) with P. aeruginosa ATCC27835, 16 µg/mL (≈ 33.2 µM) with K. pneumoniae ATCC13883, 4 µg/mL (≈ 8.31 µM) in the test with E. coli ATCC25922 and 4 µg/mL (≈ 8.31 µM) in the test on P. aeruginosa 209 PAO1. Besides, the half-maximal inhibitory concentration (IC50) (in general, the midpoint of a concentration-inhibition curve) turned out to be 36.9 nM at P. aeruginosa LpxC, 2.6 nM on E. coli LpxC and 4.3 nM on K. pneumoniae LpxC.
Turning to `C[C@H](O)c1nccn1[C@@H](/C=C/c1ccc(-c2ccc(OC3CCN(CCO)CC3)cc2)cc1)CO` [Compound 17, (S,E)-2-(2-((S)-1-hydroxyethyl)-1H-imidazol-1-yl)-4-(4′-((1-(2-hydroxyethyl)piperidin-4-yl)oxy)-[1,1′-biphenyl]-4-yl)but-3-en-1-ol], the MIC was found to be 4 µg/mL (≈ 8.38 µM) with P. aeruginosa ATCC27835, 16 µg/mL (≈ 33.5 µM) with K. pneumoniae ATCC13883, 4 µg/mL (≈ 8.38 µM) in the test with E. coli ATCC25922 and 4 µg/mL (≈ 8.38 µM) in the test with P. aeruginosa 209 PAO1. Moreover, the figures for the half-maximal inhibitory concentration (IC50) on P. aeruginosa LpxC, on E. coli LpxC and at K. pneumoniae LpxC were 66.4 nM, 4.2 nM and 6.3 nM, respectively.
With `C[C@H](O)c1nccn1[C@@H](/C=C/c1ccc(-c2ccc(OCC(N)CO)cc2)cc1)CCO` (mixture of isomers) [Compound 19, (3R,E)-5-(4′-(2-amino-3-hydroxypropoxy)-[1,1′-biphenyl]-4-yl)-3-(2-((S)-1-hydroxyethyl)-1H-imidazol-1-yl)pent-4-en-1-ol], the minimum inhibitory concentration (MIC) was determined as 4 µg/mL (≈ 9.14 µM) in the test with P. aeruginosa ATCC27835, 64 µg/mL (≈ 146 µM) in the test with K. pneumoniae ATCC13883, 8 µg/mL (≈ 18.3 µM) with E. coli ATCC25922 and 4 µg/mL (≈ 9.14 µM) in the test on P. aeruginosa 209 PAO1. Further, the IC50 at P. aeruginosa LpxC came to 62.3 nM; on E. coli LpxC it was 5.1 nM; at K. pneumoniae LpxC, 8 nM.
For the compound `COC(CN)COc1ccc(-c2ccc(/C=C/[C@@H](CO)n3ccnc3[C@H](C)O)cc2)cc1` (mixture of isomers) [Compound 27, (2S,E)-4-(4′-(3-amino-2-methoxypropoxy)-[1,1′-biphenyl]-4-yl)-2-(2-((S)-1-hydroxyethyl)-1H-imidazol-1-yl)but-3-en-1-ol], the MIC stood at 4 µg/mL (≈ 9.14 µM) in the test with P. aeruginosa ATCC27835, 32 µg/mL (≈ 73.1 µM) in the test with K. pneumoniae ATCC13883, 8 µg/mL (≈ 18.3 µM) with E. coli ATCC25922 and 4 µg/mL (≈ 9.14 µM) in the test on P. aeruginosa 209 PAO1. For the same compound, the 50% inhibitory concentration (IC50) at P. aeruginosa LpxC stood at 41.2 nM; on E. coli LpxC, 2.9 nM; at K. pneumoniae LpxC it was 6.2 nM.
For the compound `C[C@H](O)c1nccn1[C@@H](/C=C(\F)c1ccc(-c2ccc(OCC(O)CN)cc2)cc1)CO` (single isomer, unassigned) [Compound 30, (S,Z)-4-(4′-((R)-3-amino-2-hydroxypropoxy)-[1,1′-biphenyl]-4-yl)-4-fluoro-2-(2-((S)-1-hydroxyethyl)-1H-imidazol-1-yl)but-3-en-1-ol; or (S,Z)-4-(4′-((S)-3-amino-2-hydroxypropoxy)-[1,1′-biphenyl]-4-yl)-4-fluoro-2-(2-((S)-1-hydroxyethyl)-1H-imidazol-1-yl)but-3-en-1-ol], the MIC turned out to be 8 µg/mL (≈ 18.1 µM) with P. aeruginosa ATCC27835, 32 µg/mL (≈ 72.5 µM) in the test with K. pneumoniae ATCC13883, 16 µg/mL (≈ 36.2 µM) with E. coli ATCC25922 and 8 µg/mL (≈ 18.1 µM) in the test on P. aeruginosa 209 PAO1. The figures for the IC50 at P. aeruginosa LpxC, at E. coli LpxC and at K. pneumoniae LpxC were 79.5 nM, 5 nM and 7.6 nM, respectively.
Consider `C[C@H](O)c1nccn1[C@@H](/C=C(\F)c1ccc(-c2ccc(OCC(N)CO)cc2)cc1)CO` (mixture of isomers) [Compound 11], for which the MIC with P. aeruginosa ATCC27835 came out at 2 µg/mL (≈ 4.53 µM); in the test on K. pneumoniae ATCC13883, 16 µg/mL (≈ 36.2 µM); with E. coli ATCC25922, 4 µg/mL (≈ 9.06 µM); in the test on P. aeruginosa 209 PAO1 it was 1 µg/mL (≈ 2.26 µM). Besides, the values for the IC50 on P. aeruginosa LpxC, at E. coli LpxC and at K. pneumoniae LpxC were 31.3 nM, 2.7 nM and 4 nM, respectively.
